Measurements reported in patent EP0532706B1, “REDUCTION OF CARDIOVASCULAR VESSEL OCCLUSIONS WITH ASCORBATE AND LIPOPROTEIN (a) BINDING INHIBITORS” (priority 1990, dated 1991).

Key:
in vivo = format: in vivo, guinea pig
Method: Blood was drawn by ear puncture from the anesthetized animals and collected into EDTA containing tubes at the beginning, after 10 days, and after 3 weeks, when the animals were sacrificed. Plasma was stored at -80°C until analyzed. Lp(a) was detected in the plasma of the guinea pigs by use of SDS-polyacrylamide gels according to Neville ((1971) J. Biol. Chem. 246:6328-6334) followed by Western blotting according to Beisiegel, et al. ((1982) J. Biol. Chem. 257:13150-13156). Forty »l of plasma and 20 mg of arterial wall homogenate were applied in delipidated form per lane of the gel. The immunodetection of apo(a) was performed using a polyclonal anti-human apo(a) antibody (Immuno, Vienna, Austria) followed by a rabbit anti-sheep antibody (Sigma) and the gold-conjugated goat anti-rabbit antibody with subsequent silver enhancement (Bio-Rad). The determinations of cholesterol and triglycerides were done at California Veterinary Diagnostics (Sacramento) using the enzyme assay of Boehringer Mannheim. The amount of plasma ascorbate was determined by the dinitrophenylhydrazine method according to Schaffer, et al. ((1955) J. Biol. Chem. 212:59).
To confirm the data obtained in Example 1, a second guinea pig experiment was conducted, using 33 male animals with a mean weight of 550 g and an approximate age of 5 months. One group of 8 animals served as a control and received 40 mg ascorbate/kg BW/d (group A). To induce hypoascorbemia 16 animals were fed 2 mg ascorbate/kg BW/d (group B). Group A and half of the animals of group B (progression sub-group) were sacrificed after 5 weeks as described above. Half of group B was kept for 2 more weeks, receiving daily intraperitoneal injection of 1.3 g Na-ascorbate/kg BW/d as a daily intra peritoneal injection with the intention to reduce the extent of atherosclerosis lesions. After this regression period these animals also were sacrificed.

atherosclerotic lesions = experiment: Example 2: area of aortic atherosclerotic lesions in guinea pig groups; format: in vivo
Text: At necropsy the animals were anesthetized with metophase and exsanguinated. The aorta, heart and various other organs were taken for biochemical and histological analysis. The aorta was excised, the adventitial fat carefully removed, and the vessel was opened longitudinally. Subsequently the aorta was placed on a dark metric paper and a color slide was taken. The picture was projected and thereby magnified by an approximate factor of 10. The circumference of the ascending aorta, the aortic arch and thoracic aorta, as well as the atherosclerotic lesions in this area, were marked and measured with a digitalized planimetry system. The degree of atherosclerosis was expressed by the ratio of plaque area in relation to the total aortic area defined.
To confirm the data obtained in Example 1, a second guinea pig experiment was conducted, using 33 male animals with a mean weight of 550 g and an approximate age of 5 months. One group of 8 animals served as a control and received 40 mg ascorbate/kg BW/d (group A). To induce hypoascorbemia 16 animals were fed 2 mg ascorbate/kg BW/d (group B). Group A and half of the animals of group B (progression sub-group) were sacrificed after 5 weeks as described above. […]

[1] = Scurvy (progress), group B: 2 mg ascorbate/kg BW/d, 5 weeks
[2] = Regression (after Scurvy): 2 more weeks with daily intraperitoneal 1.3 g Na-ascorbate/kg BW/d

Structure (SMILES)	Plasma Cholesterol (in vivo; Control, group A: 40 mg ascorbate/kg BW/d, 5 weeks) [mg/dL]	Plasma Cholesterol (in vivo; [1]) [mg/dL]	concentration at 840 h (in vivo; guinea pig, in vivo, 2 mg/kg/day) [ng/mL]	concentration at 840 h (in vivo; guinea pig, in vivo, 40 mg/kg/day) [ng/mL]	Atheroscl. Lesion (Percent of Aorta Thorac. Surface) (atherosclerotic lesions; [1])	Plasma Cholesterol (in vivo; [2]) [mg/dL]	concentration at 336 h (in vivo; guinea pig, in vivo, ip, 1300 mg/kg/day) [ng/mL]	Atheroscl. Lesion (Percent of Aorta Thorac. Surface) (atherosclerotic lesions; [2])
O=C1O[C@H]([C@@H](O)CO)C(O)=C1O [ascorbate]	39	54	3010	5030	25% of Aorta Thorac. Surface	–	–	–
O=C1O[C@H]([C@@H](O)CO)C(O)=C1O [Na-ascorbate]	–	–	–	–	–	33	20600	19% of Aorta Thorac. Surface
